Calls of active or inactive are those of the source. The rule behind the calls is not given here.
Tests used:
[1] = system: Nephotettix cincticeps; assay: Insecticidal activity against Nephotettix cincticeps (green rice leafhopper) assessed as mortality measured after 4 days; type: functional
[2] = Photolysis of the compound assessed as half life at 30 degC by 250 W sun lamp; type: physicochemical
[3] = system: Myzus persicae; assay: Insecticidal activity against Myzus persicae (green peach aphid) in cabbage plant assessed as mortality at 100 mg/L insects released after 3 days of compound treatment measured after 72 hr of insect release (reference value: 14 +/- 4%); type: functional
[4] = system: Nephotettix cincticeps; assay: Insecticidal activity against Nephotettix cincticeps (green rice leafhopper) in rice plant assessed as mortality at 100 mg/L insects released after 14 days of compound treatment measured after 72 hr of insect release (reference value: 0%); type: functional
[5] = system: Nephotettix cincticeps; assay: Insecticidal activity against Nephotettix cincticeps (green rice leafhopper) in rice plant assessed as mortality at 100 mg/L insects released after 14 days of compound treatment measured after 24 hr of insect release; type: functional
[6] = system: Nephotettix cincticeps; assay: Insecticidal activity against Nephotettix cincticeps (green rice leafhopper) in rice plant assessed as mortality at 100 mg/L insects released after 3 days of compound treatment measured after 24 hr of insect release; type: functional
[7] = system: Nephotettix cincticeps; assay: Insecticidal activity against Nephotettix cincticeps (green rice leafhopper) in rice plant assessed as mortality at 100 mg/L insects released after 7 days of compound treatment measured after 24 hr of insect release; type: functional
[8] = system: Nephotettix cincticeps; assay: Insecticidal activity against Nephotettix cincticeps (green rice leafhopper) in rice plant assessed as mortality at 100 mg/L insects released after 7 days of compound treatment measured after 48 hr of insect release; type: functional
[9] = system: Myzus persicae; assay: Insecticidal activity against Myzus persicae (green peach aphid) in cabbage plant assessed as mortality at 100 mg/L insects released after 14 days of compound treatment measured after 72 hr of insect release (reference value: 0%); type: functional
[10] = system: Nephotettix cincticeps; assay: Insecticidal activity against Nephotettix cincticeps (green rice leafhopper) in rice plant assessed as mortality at 100 mg/L insects released after 7 days of compound treatment measured after 72 hr of insect release (reference value: 0%); type: functional
[11] = system: Nephotettix cincticeps; assay: Insecticidal activity against Nephotettix cincticeps (green rice leafhopper) in rice plant assessed as mortality at 100 mg/L insects released after 3 days of compound treatment measured after 72 hr of insect release (reference value: 0%); type: functional
[12] = system: Nephotettix cincticeps; assay: Insecticidal activity against Nephotettix cincticeps (green rice leafhopper) in rice plant assessed as mortality at 100 mg/L insects released after 3 days of compound treatment measured after 48 hr of insect release; type: functional
[13] = system: Nephotettix cincticeps; assay: Insecticidal activity against Nephotettix cincticeps (green rice leafhopper) in rice plant assessed as mortality at 100 mg/L insects released after 14 days of compound treatment measured after 48 hr of insect release; type: functional
[14] = system: Myzus persicae; assay: Insecticidal activity against Myzus persicae (green peach aphid) in cabbage plant assessed as mortality at 100 mg/L insects released after 7 days of compound treatment measured after 72 hr of insect release (reference value: 10 +/- 3%); type: functional
[15] = system: Spodoptera litura; assay: Insecticidal activity against Spodoptera litura (tobacco cutworm) assessed as mortality measured as LC90; type: functional

| Compound | LC90 [1] | other results |
| --- | --- | --- |
| O=[N+]([O-])C=C1NCCN1 [2-(NITROMETHYLENE)IMIDAZOLIDINE] | 1000 ppm |  |
| O=[N+]([O-])/C=C1\SCCN1Cc1ccc(Cl)nc1 |  | half-life [2]: < 0.5 h |
| CN1CCN(Cc2ccc(Cl)nc2)/C1=N/[N+](=O)[O-] | 1.6 ppm |  |
| Cc1ccc(CN2CCN/C2=C\[N+](=O)[O-])cc1 | 200 ppm |  |
| CCCN1CCN(Cc2ccc(Cl)nc2)/C1=N/[N+](=O)[O-] | 0.32 ppm |  |
| O=[N+]([O-])/N=C1\NCCCN1Cc1ccc(Cl)nc1 |  | half-life [2]: 3.5 h |
| O=[N+]([O-])/C=C1\NCCN1Cc1ccncc1 | 8 ppm |  |
| N#C/C=C1\NCCN1Cc1ccc(Cl)nc1 | inactive |  |
| O=[N+]([O-])/C=C1\NCCN1Cc1cnc2ccccc2c1 | inactive |  |
| O=[N+]([O-])/C=C1\NCCN1Cc1ccc(Cl)nc1 | 0.32 ppm | half-life [2]: 1 h |
| O=[N+]([O-])/N=C1/N(CCCCCCCN2CCN(Cc3ccc(Cl)nc3)/C2=N/[N+](=O)[O-])CCN1Cc1ccc(Cl)nc1 [Heptamethylene 1,7-bis-imadacloprid] |  | mortality [3]: 100%; mortality [4]: 100%; mortality [5]: 100%; mortality [6]: 13%; mortality [7]: 83%; mortality [8]: 100%; mortality [9]: 100%; mortality [10]: 100%; mortality [11]: 100%; mortality [12]: 40%; mortality [13]: 100%; mortality [14]: 100% |
| O=[N+]([O-])/C=C1\NCCN1Cc1cncnc1 | 8 ppm |  |
| O=[N+]([O-])/C=C1\NCCCCCN1Cc1ccccc1 | 1000 ppm |  |
| O=[N+]([O-])/C=C1\NCCN1C1CCCCC1 | 1000 ppm |  |
| C=CCN1CCN(Cc2ccc(Cl)nc2)/C1=N/[N+](=O)[O-] | 0.32 ppm |  |
| O=[N+]([O-])/C=C1\NCCN1Cc1cccnc1Cl | 200 ppm |  |
| CC(=O)Nc1ccc(CN2CCN/C2=C\[N+](=O)[O-])cn1 | 1000 ppm |  |
| O=[N+]([O-])/C=C1\NCCN1CC1CCCO1 (centres undefined) | 500 ppm |  |
| O=[N+]([O-])/C=C1\NCCN1Cc1cccc(Cl)c1 | 200 ppm |  |
| O=[N+]([O-])/C=C1\NCCN1Cc1ccc(Cl)cc1 | 40 ppm | LC90 [15]: 500 ppm |
| N#CC(C#N)=C1NCCN1Cc1ccc(Cl)nc1 | 40 ppm |  |
| COc1ccc(CN2CCN/C2=C\[N+](=O)[O-])cn1 | 200 ppm |  |
| O=[N+]([O-])/C=C1\NCCN1Cc1ccccc1 | 200 ppm |  |

| Compound | LC90 [1] | other results |
| --- | --- | --- |
| N=C1NCCN1Cc1ccc(Cl)nc1 [DESNITROIMIDACLOPRID] | 1000 ppm |  |
| CN/C(=C\[N+](=O)[O-])NCc1ccccc1 | inactive |  |
| O=[N+]([O-])/C=C1\NCCN1Cc1cncs1 | 8 ppm |  |
| O=[N+]([O-])/C=C1\NCCCN1Cc1ccc(Cl)nc1 |  | half-life [2]: 2 h |
| O=[N+]([O-])/C=C1\NCCN1Cc1ccccc1Cl | inactive |  |
| O=[N+]([O-])/C=C1\NCCN1CCc1ccccc1 | inactive |  |
| CN1CCN/C1=C\[N+](=O)[O-] | 1000 ppm |  |
| N#Cc1cccc(CN2CCN/C2=C\[N+](=O)[O-])c1 | 40 ppm |  |
| O=[N+]([O-])C=C1NCCCS1 | 40 ppm | LC90 [15]: <40 ppm; half-life [2]: 0.5 h |
| O=[N+]([O-])/C=C1\NCCN1Cc1ccc[nH]1 | 200 ppm |  |
| O=[N+]([O-])/C=C1\NCCN1Cc1ccco1 | 200 ppm |  |
| CC(C)N1CCN(Cc2ccc(Cl)nc2)/C1=N/[N+](=O)[O-] | 40 ppm |  |
| O=[N+]([O-])/C=C1\NCCN1Cc1ccc(C(F)(F)F)nc1 | 8 ppm |  |
| O=[N+]([O-])/C=C1\NCCN1Cc1ccn[nH]1 | 200 ppm |  |
| N#C/N=C1\NCCN1Cc1ccc(Cl)nc1 | 0.32 ppm | half-life [2]: > 24 h |
| CCOC(=O)/C=C1\NCCN1Cc1ccc(Cl)nc1 | inactive |  |
| O=[N+]([O-])/C=C1\NCCN1Cc1ccc(F)nc1 | 0.32 ppm |  |
| O=[N+]([O-])/C=C1\NCCN1Cc1ccccn1 | 200 ppm |  |
| O=[N+]([O-])/C=C1\NCCN1c1ccccc1 | 1000 ppm |  |
| O=[N+]([O-])/C=C1\NCCN1Cc1cncc(Cl)c1 | 40 ppm |  |
| O=[N+]([O-])/N=C1/N(CCCCCCN2CCN(Cc3ccc(Cl)nc3)/C2=N/[N+](=O)[O-])CCN1Cc1ccc(Cl)nc1 [Hexamethylene 1,6-bis-imadacloprid] |  | mortality [3]: 83%; mortality [4]: 100%; mortality [5]: 60%; mortality [6]: 56%; mortality [7]: 59%; mortality [8]: 94%; mortality [9]: 50%; mortality [10]: 94%; mortality [11]: 89%; mortality [12]: 78%; mortality [13]: 100%; mortality [14]: 55% |
| O=[N+]([O-])/C=C1\NCCN1Cc1cccs1 | 200 ppm |  |
| CSc1ccc(CN2CCN/C2=C\[N+](=O)[O-])cn1 | 1000 ppm |  |

| Compound | LC90 [1] | other results |
| --- | --- | --- |
| CCCCCN1CCN(Cc2ccc(Cl)nc2)/C1=N/[N+](=O)[O-] | 20 ppm |  |
| O=C1NCCN1Cc1ccc(Cl)nc1 | 1000 ppm |  |
| CCN1CCN(Cc2ccc(Cl)nc2)/C1=N/[N+](=O)[O-] | 8 ppm |  |
| O=[N+]([O-])/C=C1\NCCN1Cc1cccnc1 | 8 ppm |  |
| O=[N+]([O-])/C=C1\NCCN1Cc1ccncn1 | 40 ppm |  |
| O=[N+]([O-])/C=C1\NCCCN1Cc1ccccc1 | >200 ppm |  |
| CCCCN1CCN(Cc2ccc(Cl)nc2)/C1=N/[N+](=O)[O-] | 1.6 ppm |  |
| O=[N+]([O-])/C=C1\NCCN1Cc1ccc([N+](=O)[O-])cc1 | 200 ppm |  |
| CCCCCCN1CCN(Cc2ccc(Cl)nc2)/C1=N/[N+](=O)[O-] | 40 ppm |  |
| N#Cc1ccc(CN2CCN/C2=C\[N+](=O)[O-])cn1 | 200 ppm |  |
| O=[N+]([O-])/C=C1\NCCN1Cc1ccc(Br)nc1 | 1.6 ppm |  |
| O=[N+]([O-])/C=C1\NCCN1Cc1cnco1 | 40 ppm |  |
| O=[N+]([O-])/C=C1\NCCN1Cc1ccsc1 | 200 ppm |  |
| O=[N+]([O-])/C=C1\NCCN1Cc1cnccn1 | 8 ppm |  |
| Cc1ccc(CN2CCN/C2=C\[N+](=O)[O-])cn1 | 1.6 ppm |  |
| O=[N+]([O-])/C=C1\NCCCCN1Cc1ccccc1 | 1000 ppm |  |
| CS(=O)(=O)/N=C1\NCCN1Cc1ccc(Cl)nc1 | 40 ppm |  |
| CCOC(=O)/N=C1\NCCN1Cc1ccc(Cl)nc1 | 40 ppm |  |
| O=[N+]([O-])/N=C1\NCCN1Cc1ccc(Cl)nc1 [IMIDACLOPRID] | <0.32 ppm | mortality [4]: 100%; mortality [5]: 95%; mortality [6]: 47%; mortality [7]: 89%; mortality [8]: 100%; mortality [10]: 100%; half-life [2]: 3 h; mortality [11]: 100%; mortality [12]: 80%; mortality [13]: 100% |
| COc1ccc(CN2CCN/C2=C\[N+](=O)[O-])cc1 | 200 ppm |  |
| O=[N+]([O-])N=C1N(Cc2ccc(Cl)nc2)CCN1Cc1ccc(Cl)nc1 | 1.6 ppm |  |
